# In patent US11685729B2, “C5a receptor modulators” (IDORSIA PHARMACEUTICALS LTD., priority 2018, dated 2023):
# Target: C5AR1 (Homo sapiens (Human), UniProt P21730)
# Test: In vitro assay: PathHunter beta-arrestin antagonist assay in CHO-K1 C5AR1 beta-arrestin cell line, stimulated with C5a agonist
# Settings: not given
# Chain of C5AR1 (P21730 whole entry): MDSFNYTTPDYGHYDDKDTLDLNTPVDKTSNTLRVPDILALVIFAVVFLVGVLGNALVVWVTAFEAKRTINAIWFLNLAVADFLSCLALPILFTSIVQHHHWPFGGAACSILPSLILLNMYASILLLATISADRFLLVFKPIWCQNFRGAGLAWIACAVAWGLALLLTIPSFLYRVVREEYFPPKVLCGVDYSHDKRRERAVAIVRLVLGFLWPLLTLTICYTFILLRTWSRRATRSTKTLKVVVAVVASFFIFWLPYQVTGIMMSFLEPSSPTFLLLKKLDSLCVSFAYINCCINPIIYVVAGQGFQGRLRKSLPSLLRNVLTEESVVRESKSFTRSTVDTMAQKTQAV
row,Structure (SMILES),IC50 [nM]
1,"Cc1cccc(F)c1N1CCC(N2C(=O)N(Cc3ccccc3C(F)(F)F)c3ccccc3C2C)CC1 (single isomer, unassigned) [Example 71, (S)- or (R)-3-[1-(2-Fluoro-6-methyl-phenyl)-piperidin-4-yl]-4-methyl-1-(2-trifluoromethyl-benzyl)-3,4-dihydro-1H-quinazolin-2-one]",59

# Same assay, conditions: read-out: C5aR IC50; CHO-K1 C5AR1 beta-arrestin cell line; 1-10 nM C5a agonist; geometric mean values
row,Structure (SMILES),IC50 [nM]
1,"Cc1cccc(F)c1N1CCC(N2Cc3ccccc3N(Cc3ccccc3OC3CCC3)C2=O)CC1 [Example 52, 1-(2-Cyclobutoxy-benzyl)-3-[1-(2-fluoro-6-methyl-phenyl)-piperidin-4-yl]-3,4-dihydro-1H-quinazolin-2-one]",69
2,"COc1ccccc1CN1C(=O)N(C2CCN(c3c(C)cccc3F)CC2)Cc2ccccc21 [Example 37, 3-[1-(2-Fluoro-6-methyl-phenyl)-piperidin-4-yl]-1-(2-methoxy-benzyl)-3,4-dihydro-1H-quinazolin-2-one]",138
3,"Cc1cccc(F)c1N1CCC(N2Cc3nccnc3N(Cc3ccccc3C(F)(F)F)C2=O)CC1 [Example 58, 3-[1-(2-Fluoro-6-methyl-phenyl)-piperidin-4-yl]-1-(2-trifluoromethyl-benzyl)-3,4-dihydro-1H-pteridin-2-one]",21
4,"Cc1cccc(F)c1N1CCC(N2Cc3ccccc3N(Cc3nccnc3C(F)(F)F)C2=O)CC1 [Example 42, 3-[1-(2-Fluoro-6-methyl-phenyl)-piperidin-4-yl]-1-(3-trifluoromethyl-pyrazin-2-ylmethyl)-3,4-dihydro-1H-quinazolin-2-one]",63
5,"Cc1cccc(F)c1N1CCC(N2Cc3ccccc3N(Cc3ccccc3OC(F)(F)F)C2=O)CC1 [Example 74, 3-[1-(2-Fluoro-6-methyl-phenyl)-piperidin-4-yl]-1-(2-trifluoromethoxy-benzyl)-3,4-dihydro-1H-quinazolin-2-one]",17
6,"Cc1ccnc(F)c1N1CC[C@@H](N2Cc3ccccc3N(Cc3ccccc3C(F)(F)F)C2=O)C1 [Example 33, 3-[(R)-1-(2-Fluoro-4-methyl-pyridin-3-yl)-pyrrolidin-3-yl]-1-(2-trifluoromethyl-benzyl)-3,4-dihydro-1H-quinazolin-2-one]",43
7,"COc1nccnc1CN1C(=O)N(C2CCN(c3c(C)cccc3F)CC2)Cc2ccccc21 [Example 43, 3-[1-(2-Fluoro-6-methyl-phenyl)-piperidin-4-yl]-1-(3-methoxy-pyrazin-2-ylmethyl)-3,4-dihydro-1H-quinazolin-2-one]",299
8,"COc1cccc(OC)c1N1CC[C@@H](N2Cc3cccc(OC)c3N(Cc3ccccc3C(F)(F)F)C2=O)C1 [Example 24, 3-[(R)-1-(2,6-Dimethoxy-phenyl)-pyrrolidin-3-yl]-8-methoxy-1-(2-trifluoromethyl-benzyl)-3,4-dihydro-1H-quinazolin-2-one]",383
9,"Cc1ccnc(C)c1N1CC[C@@H](N2Cc3ccccc3N(Cc3ccccc3C(F)(F)F)C2=O)C1 [Example 32, 3-[(R)-1-(2,4-Dimethyl-pyridin-3-yl)-pyrrolidin-3-yl]-1-(2-trifluoromethyl-benzyl)-3,4-dihydro-1H-quinazolin-2-one]",280
10,"Cc1cccc(F)c1N1CC[C@@H](N2Cc3ccccc3N(Cc3ccccc3C(F)(F)F)C2=O)C1 [Example 26, 3-[(R)-1-(2-Fluoro-6-methyl-phenyl)-pyrrolidin-3-yl]-1-(2-trifluoromethyl-benzyl)-3,4-dihydro-1H-quinazolin-2-one]",35
11,"Cc1cccc(C)c1N1CC[C@@H](N2Cc3ccccc3N(Cc3ccccc3C(F)(F)F)C2=O)C1 [Example 18, 3-[(R)-1-(2,6-Dimethyl-phenyl)-pyrrolidin-3-yl]-1-(2-trifluoromethyl-benzyl)-3,4-dihydro-1H-quinazolin-2-one]",28
12,"Cc1cccc(F)c1N1CCC(N2Cc3ccccc3N(Cc3cnccc3C(F)(F)F)C2=O)CC1 [Example 67, 3-[1-(2-Fluoro-6-methyl-phenyl)-piperidin-4-yl]-1-(4-trifluoromethyl-pyridin-3-ylmethyl)-3,4-dihydro-1H-quinazolin-2-one]",46
